The values that follow are results of earlier work, collected in patent US6486118B1, “Detergent compositions” (Unilever Home & Personal Care USA, division of Conopco, Inc., priority 1999, dated 2002).

Read-outs that look alike come from different tables or passages of the source.

The mark [1] stands for this setting: other common materials, by contrast, at 20° C.

Take `O=BO[O-].[Na+]` [Sodium perborate anhydrous]: under setting [1], the “Water Solubility (g/100 g)” value is 3.7 g/100 g. On to `O=P(O)(O)OP(=O)(O)OP(=O)(O)O` [Sodium tripolyphosphate anhydrous], for which the “Water Solubility (g/100 g)” value under setting [1] is 15 g/100 g. With `NC(N)=O` [Urea], for the setting “highly water-soluble materials, grams of solid to form a saturated solution in 100 grams of water at 20° C.”, the “Water Solubility (g/100 g)” value is reported as over 100 g/100 g.
